Measurements from patent US10532991B2 (TAIPEI MEDICAL UNIVERSITY, priority 2018, dated 2020).

Key:
[1] = in vivo; cited from earlier work
[2] = Human liver microsome stability; assay type: in vitro ADME; conditions: human liver microsomes, 1 μM test compound, 37° C.; CLint = k/P

## [2H]C([2H])([2H])Oc1cc2c(cc1OC([2H])([2H])[2H])C1CC(=O)C(CC(C)C)CN1CC2 (centres unmarked) [deutetrabenazine]
[1]
  area under the curve (AUC): 542 ng·h/mg
  t1/2: 8.6 h

## COc1cc2c(cc1OC)C1CC(=O)C(CC(C)C)CN1CC2 (centres unmarked) [tetrabenazine]
[1]
  area under the curve (AUC): 261 ng·h/mg
  t1/2: 4.8 h

## C[C@]12CC[C@H]3[C@@H](CCC4=CC(=O)CC[C@@]43C)[C@@H]1CC[C@@H]2O [Testosterone, testosterone, reference compound]
[2]
  CLint (intrinsic clearance): 0.0727 mL/min/mg Protein
